Reference: the NIST ThermoML archive (doi:10.1021/je060271a)
± gives the expanded uncertainty stated by the source.

Conditions: 283.14 K, Liquid, Vibrating tube method

CCCCCCC(=O)OCC(COC(=O)CCCCCC)(COC(=O)CCCCCC)COC(=O)CCCCCC [pentaerythritol tetraheptanoate]
Conditions	mass density [kg/m3]
19935 kPa	997 ± 1.2
19962 kPa	996.9 ± 1.2
19984 kPa	996.9 ± 1.2
20007 kPa	996.9 ± 1.2
20034 kPa	997 ± 1.2
20057 kPa	997 ± 1.2
20081 kPa	997 ± 1.2
20105 kPa	997 ± 1.2
20133 kPa	997 ± 1.2
20156 kPa	997 ± 1.2
20179 kPa	997.1 ± 1.2
20202 kPa	997 ± 1.2
20230 kPa	997 ± 1.2
20253 kPa	997.1 ± 1.2
20282 kPa	997.1 ± 1.2
20305 kPa	997 ± 1.2
20328 kPa	997.1 ± 1.2
20356 kPa	997.1 ± 1.2
20380 kPa	997.1 ± 1.2
20404 kPa	997.2 ± 1.2
20428 kPa	997.2 ± 1.2
20456 kPa	997.2 ± 1.2
20480 kPa	997.2 ± 1.2
20504 kPa	997.2 ± 1.2
20533 kPa	997.2 ± 1.2
20557 kPa	997.2 ± 1.2
20586 kPa	997.3 ± 1.2
20610 kPa	997.3 ± 1.2
20634 kPa	997.3 ± 1.2
20663 kPa	997.3 ± 1.2
20688 kPa	997.3 ± 1.2
20713 kPa	997.3 ± 1.2
20742 kPa	997.2 ± 1.2
20768 kPa	997.5 ± 1.2
20792 kPa	997.5 ± 1.2
20822 kPa	997.5 ± 1.2
20846 kPa	997.4 ± 1.2
20871 kPa	997.4 ± 1.2
20896 kPa	997.4 ± 1.2
20926 kPa	997.4 ± 1.2
20951 kPa	997.4 ± 1.2
20976 kPa	997.4 ± 1.2
21007 kPa	997.6 ± 1.2
21032 kPa	997.5 ± 1.2
21062 kPa	997.5 ± 1.2
21088 kPa	997.5 ± 1.2
21114 kPa	997.6 ± 1.2
21140 kPa	997.6 ± 1.2
21171 kPa	997.6 ± 1.2
21196 kPa	997.4 ± 1.2
21222 kPa	997.6 ± 1.2
21254 kPa	997.6 ± 1.2
21279 kPa	997.6 ± 1.2
21310 kPa	997.7 ± 1.2
21336 kPa	997.5 ± 1.2
21362 kPa	997.7 ± 1.2
21393 kPa	997.6 ± 1.2
21419 kPa	997.7 ± 1.2
21446 kPa	997.7 ± 1.2
21473 kPa	997.7 ± 1.2
21505 kPa	997.7 ± 1.2
21531 kPa	997.7 ± 1.2
21558 kPa	997.6 ± 1.2
21585 kPa	997.8 ± 1.2
21617 kPa	997.6 ± 1.2
21644 kPa	997.8 ± 1.2
21671 kPa	997.9 ± 1.2
21703 kPa	997.8 ± 1.2
21730 kPa	997.9 ± 1.2
21758 kPa	997.8 ± 1.2
21790 kPa	997.9 ± 1.2
21818 kPa	997.9 ± 1.2
21846 kPa	997.9 ± 1.2
21873 kPa	997.7 ± 1.2
21906 kPa	998 ± 1.2
21933 kPa	997.9 ± 1.2
21961 kPa	998 ± 1.2
21994 kPa	997.9 ± 1.2
22022 kPa	997.9 ± 1.2
22055 kPa	998 ± 1.2
22083 kPa	998 ± 1.2
22111 kPa	997.9 ± 1.2
22139 kPa	998.1 ± 1.2
22174 kPa	998.1 ± 1.2
22199 kPa	998 ± 1.2
22233 kPa	998.1 ± 1.2
22261 kPa	998.2 ± 1.2
22294 kPa	998.1 ± 1.2
22323 kPa	998.1 ± 1.2
22352 kPa	998.2 ± 1.2
22381 kPa	998.2 ± 1.2
22416 kPa	998.2 ± 1.2
22444 kPa	998.2 ± 1.2
22474 kPa	998.1 ± 1.2
22509 kPa	998.2 ± 1.2
22538 kPa	998.2 ± 1.2
22569 kPa	998.2 ± 1.2
22599 kPa	998.2 ± 1.2
22628 kPa	998.3 ± 1.2
22664 kPa	998.4 ± 1.2
22694 kPa	998.3 ± 1.2
22724 kPa	998.3 ± 1.2
22760 kPa	998.4 ± 1.2
22789 kPa	998.4 ± 1.2
22819 kPa	998.3 ± 1.2
22855 kPa	998.4 ± 1.2
22886 kPa	998.5 ± 1.2
22915 kPa	998.4 ± 1.2
22952 kPa	998.5 ± 1.2
22982 kPa	998.4 ± 1.2
23012 kPa	998.5 ± 1.2
23049 kPa	998.6 ± 1.2
23079 kPa	998.5 ± 1.2
23110 kPa	998.5 ± 1.2
23147 kPa	998.6 ± 1.2
23178 kPa	998.6 ± 1.2
23209 kPa	998.6 ± 1.2
23246 kPa	998.5 ± 1.2
23277 kPa	998.7 ± 1.2
23308 kPa	998.6 ± 1.2
23339 kPa	998.7 ± 1.2
23377 kPa	998.7 ± 1.2
23410 kPa	998.6 ± 1.2
23442 kPa	998.7 ± 1.2
23480 kPa	998.8 ± 1.2
23512 kPa	998.7 ± 1.2
23543 kPa	998.7 ± 1.2
23576 kPa	998.8 ± 1.2
23614 kPa	998.8 ± 1.2
23646 kPa	998.8 ± 1.2
23685 kPa	998.8 ± 1.2
23717 kPa	998.8 ± 1.2
23749 kPa	998.9 ± 1.2
23788 kPa	998.8 ± 1.2
23821 kPa	998.9 ± 1.2
23854 kPa	999 ± 1.2
23888 kPa	998.9 ± 1.2
23927 kPa	998.9 ± 1.2
23960 kPa	998.9 ± 1.2
23999 kPa	998.9 ± 1.2
24032 kPa	998.9 ± 1.2
24066 kPa	999.1 ± 1.2
24099 kPa	998.9 ± 1.2
24140 kPa	999.1 ± 1.2
24173 kPa	999.1 ± 1.2
24213 kPa	999 ± 1.2
24247 kPa	999 ± 1.2
24281 kPa	999.1 ± 1.2
24324 kPa	999.2 ± 1.2
24358 kPa	999.1 ± 1.2
24392 kPa	999.2 ± 1.2
24426 kPa	999.3 ± 1.2
24468 kPa	999.3 ± 1.2
24502 kPa	999.3 ± 1.2
24543 kPa	999.3 ± 1.2
24578 kPa	999.3 ± 1.2
24613 kPa	999.2 ± 1.2
24655 kPa	999.4 ± 1.2
24726 kPa	999.4 ± 1.2
24769 kPa	999.4 ± 1.2
24841 kPa	999.4 ± 1.2
24878 kPa	999.5 ± 1.2
24921 kPa	999.5 ± 1.2
24958 kPa	999.4 ± 1.2
24994 kPa	999.5 ± 1.2
25038 kPa	999.6 ± 1.2
25075 kPa	999.6 ± 1.2
25112 kPa	999.6 ± 1.2
25155 kPa	999.5 ± 1.2
25192 kPa	999.6 ± 1.2
25230 kPa	999.6 ± 1.2
25277 kPa	999.6 ± 1.2
25314 kPa	999.6 ± 1.2
25352 kPa	999.6 ± 1.2
25389 kPa	999.7 ± 1.2
25427 kPa	999.8 ± 1.2
25472 kPa	999.8 ± 1.2
25511 kPa	999.8 ± 1.2
25549 kPa	999.8 ± 1.2
25595 kPa	999.7 ± 1.2
25633 kPa	999.9 ± 1.2
25672 kPa	999.8 ± 1.2
25718 kPa	1000 ± 1.2
25758 kPa	1000 ± 1.2
25799 kPa	999.9 ± 1.2
25839 kPa	999.8 ± 1.2
25886 kPa	999.9 ± 1.2
25918 kPa	1000.1 ± 1.2
26265 kPa	1000.1 ± 1.2
26414 kPa	1000.4 ± 1.2
26496 kPa	1000.3 ± 1.2
26525 kPa	1000.3 ± 1.2
26556 kPa	1000.2 ± 1.2
26581 kPa	1000.3 ± 1.2
26612 kPa	1000.3 ± 1.2
26638 kPa	1000.3 ± 1.2
26665 kPa	1000.4 ± 1.2
26696 kPa	1000.4 ± 1.2
26722 kPa	1000.4 ± 1.2
26776 kPa	1000.3 ± 1.2
26950 kPa	1000.5 ± 1.2
27004 kPa	1000.4 ± 1.2
27030 kPa	1000.6 ± 1.2
27063 kPa	1000.7 ± 1.2
27090 kPa	1000.6 ± 1.2
27291 kPa	1000.7 ± 1.2
27380 kPa	1000.7 ± 1.2
27414 kPa	1000.6 ± 1.2
27442 kPa	1000.8 ± 1.2
27476 kPa	1000.8 ± 1.2
27506 kPa	1000.7 ± 1.2
27536 kPa	1000.8 ± 1.2
27566 kPa	1000.9 ± 1.2
27704 kPa	1000.9 ± 1.2
27724 kPa	1000.9 ± 1.2
27744 kPa	1000.9 ± 1.2
27768 kPa	1000.9 ± 1.2
27787 kPa	1001 ± 1.2
27808 kPa	1000.9 ± 1.2
27832 kPa	1000.9 ± 1.2
27851 kPa	1001 ± 1.2
27872 kPa	1001 ± 1.2
27980 kPa	1001 ± 1.6
28001 kPa	1001 ± 1.2
